This test addresses T1, GABA A receptor α5β3γ2 (Homo sapiens, UniProt P18507+P31644).
T1 construct: expressed in transfected cells; host or cells: HEK293 cells, transiently transfected; membranes prepared
Kind of test: [3H]flumazenil competition binding, human GABA A α5β3γ2. Particulars: competition for [3H]flumazenil (0.5 nM) binding, HEK293 cells expressing human (transiently transfected) α5β3γ2; means of two determinations; read-out: Ki[nM] hα5. The method, boiled down:
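HEK293 membranes expressing GABA-A receptors (human transiently, rat stably transfected) were used for [3H]flumazenil competition in Krebs-tris buffer, pH 7.5. Incubation ran 1 h at 4 °C to equilibrium, followed by filtration and scintillation counting. Ki values are means of two determinations.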

This passage reports Ki results from patent US7956074B2, “Aryl-isoxazolo-4-yl-oxadiazole derivatives” (Hoffman-La Roche Inc., priority 2005, dated 2011).

A word on the Ki: it is a measure of affinity in units of concentration, obtained from inhibition or displacement.

`Cc1onc(-c2ccccc2)c1-c1nnc(-c2ccccn2)o1` [Example 9, 2-[5-(5-Methyl-3-phenyl-isoxazol-4-yl)-[1,3,4]oxadiazol-2-yl]-pyridine]: the inhibitory constant (Ki) was determined as 286 nM. `Cc1onc(-c2ccccc2)c1-c1nnc(-c2ccc3[nH]ccc3c2)o1` [Example 74, 5-[5-(5-Methyl-3-phenyl-isoxazol-4-yl)-[1,3,4]oxadiazol-2-yl]-1H-indole]: the inhibitory constant (Ki) was 134 nM.

For the compound `Cc1onc(-c2ccccc2)c1-c1nnc(-c2ccc3c(ccn3C)c2)o1` [Example 75, 1-Methyl-5-[5-(5-methyl-3-phenyl-isoxazol-4-yl)-[1,3,4]oxadiazol-2-yl]-1H-indole], the Ki turned out to be 129 nM.

Consider `Cc1onc(-c2ccccc2)c1-c1nnc(-c2cccnc2Cl)o1` [Example 6, 2-Chloro-3-[5-(5-methyl-3-phenyl-isoxazol-4-yl)-[1,3,4]oxadiazol-2-yl]-pyridine], for which the Ki came to 146 nM.

Take `COc1cc(NC=O)ccc1-c1nnc(-c2c(-c3ccccc3)noc2C)o1` [Example 134, N-{3-Methoxy-4-[5-(5-methyl-3-phenyl-isoxazol-4-yl)-[1,3,4]oxadiazol-2-yl]-phenyl}-formamide]: the Ki was 5.8 nM. Regarding `Cc1onc(-c2ccccc2)c1-c1nnc(C2CCCCC2)o1` [Example 70, 2-Cyclohexyl-5-(5-methyl-3-phenyl-isoxazol-4-yl)-[1,3,4]oxadiazole], the inhibition constant Ki worked out at 262 nM. Regarding `COc1cc(NC(C)=O)ccc1-c1nnc(-c2c(-c3ccccc3)noc2C)o1` [Example 89, N-{3-Methoxy-4-[5-(5-methyl-3-phenyl-isoxazol-4-yl)-[1,3,4]oxadiazol-2-yl]-phenyl}-acetamide], the inhibition constant Ki is 4.6 nM. The same measure for `COc1cc([N+](=O)[O-])ccc1-c1nnc(-c2c(-c3ccccc3)noc2C)o1` [Example 11, 2-(2-Methoxy-4-nitro-phenyl)-5-(5-methyl-3-phenyl-isoxazol-4-yl)-[1,3,4]oxadiazole]: 171 nM; for `COc1cc(N2CCOCC2)ccc1-c1nnc(-c2c(-c3ccccc3)noc2C)o1` [Example 68, 4-{3-Methoxy-4-[5-(5-methyl-3-phenyl-isoxazol-4-yl)-[1,3,4]oxadiazol-2-yl]-phenyl}-morpholine]: 4.2 nM. The same measure for `COc1cc(NCC2CC2)ccc1-c1nnc(-c2c(-c3ccccc3)noc2CCC2CC2)o1` [Example 18, (4-{5-[5-(2-Cyclopropyl-ethyl)-3-phenyl-isoxazol-4-yl]-[1,3,4]oxadiazol-2-yl}-3-methoxy-phenyl)-cyclopropylmethyl-amine]: 124 nM. Turning to `Cc1onc(-c2ccccc2)c1-c1nnc(-c2ccc(NC3CCOCC3)nc2)o1` [Example 139, {5-[5-(5-Methyl-3-phenyl-isoxazol-4-yl)-[1,3,4]oxadiazol-2-yl]-pyridin-2-yl}-(tetrahydro-pyran-4-yl)-amine], the inhibition constant Ki was found to be 16.4 nM. Turning to `Cc1onc(-c2ccccc2)c1-c1nnc(-c2ccc(F)cc2F)o1` [Example 76, 2-(2,4-Difluoro-phenyl)-5-(5-methyl-3-phenyl-isoxazol-4-yl)-[1,3,4]oxadiazole], the Ki was determined as 189 nM. `COc1cc(N2CCOCC2)ccc1-c1nnc(-c2c(-c3ccccc3)noc2C#N)o1` [Example 115, 4-[5-(2-Methoxy-4-morpholin-4-yl-phenyl)-[1,3,4]oxadiazol-2-yl]-3-phenyl-isoxazole-5-carbonitrile]: the inhibition constant (Ki) turned out to be 131 nM. `CCOc1ccccc1-c1nnc(-c2c(-c3ccccc3)noc2C)o1` [Example 8, 2-(2-Ethoxy-phenyl)-5-(5-methyl-3-phenyl-isoxazol-4-yl)-[1,3,4]oxadiazole]: the Ki was determined as 58.2 nM. On to `COc1cc(NS(=O)(=O)c2cccs2)ccc1-c1nnc(-c2c(-c3ccccc3)noc2C)o1` [Example 62, Thiophene-2-sulfonic acid {3-methoxy-4-[5-(5-methyl-3-phenyl-isoxazol-4-yl)-[1,3,4]oxadiazol-2-yl]-phenyl}-amide], for which the inhibitory constant (Ki) stood at 42.8 nM. For `COc1cc(-n2ccnc2C)ccc1-c1nnc(-c2c(-c3ccccc3)noc2C)o1` [Example 58, 2-[2-Methoxy-4-(2-methyl-imidazol-1-yl)-phenyl]-5-(5-methyl-3-phenyl-isoxazol-4-yl)-[1,3,4]oxadiazole], the Ki is 13.9 nM. The result for `COc1cc(N)ccc1-c1nnc(-c2c(-c3ccccc3)noc2CCC2CC2)o1` [Example 20, 4-{5-[5-(2-Cyclopropyl-ethyl)-3-phenyl-isoxazol-4-yl]-[1,3,4]oxadiazol-2-yl}-3-methoxy-phenylamine] reads 20.5 nM; that for `COc1cc(F)ccc1-c1nnc(-c2c(-c3ccccc3)noc2C(C)C)o1` [Example 61, 2-(4-Fluoro-2-methoxy-phenyl)-5-(5-isopropyl-3-phenyl-isoxazol-4-yl)-[1,3,4]oxadiazole], 17.7 nM; that for `Cc1onc(-c2ccccc2)c1-c1nnc(-c2cccs2)o1` [Example 121, 2-(5-Methyl-3-phenyl-isoxazol-4-yl)-5-thiophen-2-yl-[1,3,4]oxadiazole], 115 nM. For the compound `Cc1onc(-c2ccccc2)c1-c1nnc(-c2cccc(F)c2F)o1` [Example 84, 2-(2,3-Difluoro-phenyl)-5-(5-methyl-3-phenyl-isoxazol-4-yl)-[1,3,4]oxadiazole], the inhibition constant (Ki) amounted to 225 nM. `Cc1onc(-c2ccccc2)c1-c1nnc(-c2ccccc2N)o1` [Example 12, 2-[5-(5-Methyl-3-phenyl-isoxazol-4-yl)-[1,3,4]oxadiazol-2-yl]-phenylamine]: the inhibition constant (Ki) came to 106 nM.
